Experimental data: patent publication US9581594B2, “Porphyrin—modified antimicrobial peptides for application as indicators of microbial targets” (priority 2013, dated 2017)
Bridge positions count the residues as written; N and C are the ends. Ends that are not written are not given here.

Columns and labels:
[1] = format: physicochemical; settings: for solubility with addition of 10% DMSO: 10% dimethylsulfoxide final concentration; for solubility in water: water / aqueous solution
Text: It is still insufficient to resolve spectrophotometric characteristics with […] as evidenced by the low absorbance intensity and indistinct bands in both absorbance and fluorescence characteristics (FIGS. 1A and 1B). […] In FIGS. 2A-2D, the more traditional Soret and Q-bands in the absorbance spectra are evident, and the expected two peak fluorescence emission spectra are observed. […] Each of the constructs has unique peak positions as well as varying extinction coefficients for the Soret and Q-bands. Fluorescence emission is also uniquely varying amongst the tracers. These factors tend to indicate the formation of unique complexes providing the potential desired for these materials.

[2] = tested on: B. globigii; experiment: Microtiter plate absorbance/fluorescence analysis of interaction with bacterial cells (B. globigii); format: cell-based
Method: (§1) C1TPP and C1TPP-modified antimicrobial peptides were evaluated in a microtiter plate format using a Tecan XSafire monochromator-based microplate reader. Absorbance measurements were collected between 380 and 800 nm at 2 nm resolution. Fluorescence measurements were collected at 2 nm resolution for emission between 550 and 800 nm with excitation at 415 nm and for excitation between 385 and 619 nm with emission at 730 nm.
(§2) The microtiter plate format described above was utilized for analysis of interactions between the porphyrin-AMP constructs and bacterial cells, specifically, E. coli and B. globigii. The bacterial cells utilized were collected at mid-log phase growth and rinsed with water to remove growth media. They were then resuspended in water at approximately 3.5×10^7 cfu/mL. Analyses looked at changes in fluorescence and absorbance for fixed cell concentrations with varying tracer concentrations as well as for fixed tracer concentrations with varying cell concentrations. FIGS. 3A and 3B present data for the interaction between C1TPP and the two cell types, with absorbance (A) and fluorescence (B) spectra for C1TPP in water (black, 10% DMSO) and in the presence of E. coli (dashes) and B. globigii (dots) at 1.8×10^6 cfu/mL.

[3] = tested on: E. coli; experiment: Microtiter plate absorbance/fluorescence analysis of interaction with bacterial cells (E. coli); format: cell-based
Method: as §1, §2

## O=C(O)c1ccc(-c2c3nc(c(-c4ccccc4)c4ccc([nH]4)c(-c4ccccc4)c4nc(c(-c5ccccc5)c5ccc2[nH]5)C=C4)C=C3)cc1 [C1TPP, 5-mono(4-carboxyphenyl)-10,15,20-triphenyl porphine]
[1]
  solubility with addition of 10% DMSO: increased somewhat
  solubility in water: minimally soluble
[2]; B. globigii cells
  changes in fluorescence on interaction with cells: overall quench
[2]; B. globigii cells, range of concentrations evaluated
  changes in absorbance or fluorescence characteristics on interaction with cells: did not produce concentration dependent changes
[3]; E. coli cells
  changes in fluorescence on interaction with cells: overall quench
[3]; E. coli cells, range of concentrations evaluated
  changes in absorbance or fluorescence characteristics on interaction with cells: did not produce concentration dependent changes

## C1-Bac: C1TPP covalently attached to Bactenecin (RLCRIVVIRVCR; cyclized via disulfide bridge) (disulfide 3-11 (inferred); also: C1TPP covalently attached, site not given here)
[1]
  solubility with addition of 10% DMSO: sufficient to maintain the solubility
  solubility in water: precipitated from aqueous solution
[2]; B. globigii cells
  changes in fluorescence on interaction with cells: noted for only the highest concentrations of tracer used
[2]; in the presence of B. globigii cells
  peak/trough pair in the Soret region of the absorbance difference spectrum: 476/432
[3]; E. coli cells
  changes in fluorescence on interaction with cells: noted for only the highest concentrations of tracer used
[3]; in the presence of E. coli cells
  peak/trough pair in the Soret region of the absorbance difference spectrum: 476/432
